Experimental data as given in patent US12492173B2, “Herbicidal substituted N-tetrazolyl aryl carboxamides” (Bayer Aktiengesellschaft, priority 2019, dated 2025).

Columns and labels:
Format in all cases: in vivo
Echinochloa crus-galli = experiment: Pre-emergence herbicidal action, ECHCG; parameters: key to Herbicidal action against ECHCG: % activity: 100 = plants have died, 0 = like control plants; settings: for herbicidal activity ECHCG: dosage 320 g/ha, scored visually after 3 weeks vs untreated controls (100% = plants have died)
Procedure, shortened: (§1)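 Sown pots (sandy loam) sprayed pre-emergence → greenhouse → visual rating at 3 weeks; % activity vs untreated control, 100% = dead.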

Setaria viridis = experiment: Pre-emergence herbicidal action, SETVI; parameters: key to Herbicidal action against SETVI: % activity: 100 = plants have died, 0 = like control plants; settings: for herbicidal activity SETVI: dosage 320 g/ha, scored visually after 3 weeks vs untreated controls (100% = plants have died)
Procedure, shortened: as §1

Alopecurus myosuroides = experiment: Post-emergence herbicidal action, ALOMY; parameters: key: % herbicidal action vs untreated; 100 = plants died, 0 = like control
Procedure, shortened: (§2)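 Percent herbicidal effect was judged by eye against untreated controls around 3 weeks after foliar treatment, where 100% meant dead plants. Spraying took place at the one-leaf stage using wettable powder or emulsion concentrate diluted in water (600 to 800 l/ha) with added wetting agent at 0.2%.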

Polygonum convolvulus = experiment: Post-emergence herbicidal action, POLCO
Procedure, shortened: as §2

Stellaria media = experiment: Post-emergence herbicidal action, STEME; parameters: key: % herbicidal action vs untreated; 100 = plants died, 0 = like control
Procedure, shortened: as §2

Viola tricolor = experiment: Post-emergence herbicidal action, VIOTR; parameters: key: % herbicidal action vs untreated; 100 = plants died, 0 = like control
Procedure, shortened: as §2

[1] = comparative experiment, post-emergence, 5 g of a.i./ha
[2] = comparative experiment, 20 g of a.i./ha

| SMILES | herbicidal activity ECHCG (Echinochloa crus-galli) [%] | herbicidal activity SETVI (Setaria viridis) [%] | herbicidal action ALOMY (Alopecurus myosuroides; post-emergence, dosage 80 g/ha) [%] | herbicidal action POLCO (Polygonum convolvulus; post-emergence, dosage 80 g/ha) [%] | herbicidal action STEME (Stellaria media; post-emergence, dosage 80 g/ha) [%] | herbicidal action VIOTR (Viola tricolor; post-emergence, dosage 80 g/ha) [%] | herbicidal action ALOMY (Alopecurus myosuroides; Dosage 80 g/ha) | herbicidal action STEME (Stellaria media; Dosage 80 g/ha) | herbicidal action VIOTR (Viola tricolor; Dosage 80 g/ha) | herbicidal action POLCO (Polygonum convolvulus; Dosage 80 g/ha) | Herbicidal action against VIOTR (Viola tricolor; [1]) | Herbicidal action against ALOMY (Alopecurus myosuroides; [1]) | Herbicidal action against POLCO (Polygonum convolvulus; [1]) | Herbicidal action against ECHCG (Echinochloa crus-galli; [2]) | Herbicidal action against SETVI (Setaria viridis; [2]) |
| --- | --- | --- | --- | --- | --- | --- | --- | --- | --- | --- | --- | --- | --- | --- | --- |
| Cn1nnnc1NC(=O)c1ccc(C(F)(F)F)c(C[S+](C)[O-])c1Cl (racemic) [Example 1-297] | 100 | 100 | 100 | 80 | 100 | 100 |  |  |  |  |  |  |  |  |  |
| Cc1c(C(=O)Nc2nnnn2C)ccc(C(F)(F)F)c1C[S+](C)[O-] (stereo not drawn) [Example 1-84] | 100 | 100 | 80 |  | 100 | 100 |  |  |  |  |  |  |  |  |  |
| CCSCc1c(C(F)(F)F)ccc(C(=O)Nc2nnnn2C)c1C [Example 1-86] | 100 | 100 | 80 | 80 | 100 | 100 |  |  |  |  |  |  |  |  |  |
| CSCc1c(C(F)(F)F)ccc(C(=O)Nc2nnnn2C)c1SC [Example 1-161] | 100 | 100 |  |  |  |  | 90 | 100 | 100 |  |  |  |  |  |  |
| CCSCc1c(C(F)F)ccc(C(=O)Nc2nnnn2C)c1SCC [Example 1-191] | 100 | 100 |  |  |  |  | 80 | 100 | 100 | 90 |  |  |  |  |  |
| Cc1ccc(C(=O)Nc2nnnn2C)c(Cl)c1CS(C)(=O)=O [Example 1-289] | 90 | 90 |  |  |  |  | 80 | 100 | 100 |  |  |  |  |  |  |
| CSCc1c(C(F)(F)F)ccc(C(=O)Nc2nnnn2C)c1Cl [Example 1-296] | 100 | 100 | 100 |  | 100 | 100 |  |  |  |  | 100 |  |  |  |  |
| Cn1nnnc1NC(=O)c1ccc(C(F)(F)F)c(CS(C)(=O)=O)c1Cl [Example 1-298] | 100 | 100 | 100 | 90 | 100 | 100 |  |  |  |  |  | 70 | 60 |  |  |
| CCS(=O)(=O)Cc1c(C(F)(F)F)ccc(C(=O)Nc2nnnn2C)c1Cl [Example 1-301] | 100 | 100 |  |  |  |  | 80 | 100 | 100 | 100 |  |  |  |  |  |
| C=CCSCc1c(C(F)(F)F)ccc(C(=O)Nc2nnnn2C)c1Cl [Example 1-308] | 100 | 100 | 100 | 90 | 100 | 90 |  |  |  |  |  |  |  |  |  |
| CSCc1c(C(F)(F)F)ccc(C(=O)Nc2nnnn2C)c1Br [Example 1-380] | 100 | 100 | 90 | 90 | 100 | 100 |  |  |  |  |  |  |  |  |  |
| Cn1nnnc1NC(=O)c1ccc(C(F)(F)F)c(C[S+](C)[O-])c1Br (stereo not drawn) [Example 1-381] | 100 | 100 | 80 | 80 | 100 | 100 |  |  |  |  |  |  |  | 90 | 80 |
| CCn1nnnc1NC(=O)c1ccc(C(F)F)c(CSC)c1C [Example 2-107] | 100 | 100 |  |  |  |  | 80 | 100 | 100 | 90 |  |  |  |  |  |
| CCn1nnnc1NC(=O)c1ccc(C(F)(F)F)c(CSC)c1SC [Example 2-161] | 100 | 100 | 80 | 100 | 100 | 100 |  |  |  |  |  |  |  |  |  |
| CCn1nnnc1NC(=O)c1ccc(C(F)(F)F)c(CS(C)(=O)=O)c1SC [Example 2-163] | 100 | 100 |  |  |  |  | 90 | 100 | 100 | 90 |  |  |  |  |  |
| CCn1nnnc1NC(=O)c1ccc(C)c(CSC)c1Cl [Example 2-287] | 100 | 90 |  |  |  |  | 100 | 100 | 100 | 80 |  |  |  |  |  |
| CCn1nnnc1NC(=O)c1ccc(C(F)(F)F)c(CSC)c1Br [Example 2-380] | 100 | 100 | 80 | 90 | 100 | 100 |  |  |  |  |  |  |  |  |  |
| CCn1nnnc1NC(=O)c1ccc(C(F)(F)F)c(C[S+](C)[O-])c1Br (stereo not drawn) [Example 2-381] | 100 | 100 | 80 | 90 | 100 | 100 |  |  |  |  |  |  |  |  |  |
| CCn1nnnc1NC(=O)c1ccc(C(F)(F)F)c(CS(C)(=O)=O)c1Br [Example 2-382] | 100 | 100 |  |  |  |  | 80 | 100 | 100 | 80 |  |  |  |  |  |
| CCSCc1c(C(F)(F)F)ccc(C(=O)Nc2nnnn2CC)c1Br [Example 2-383] | 100 | 100 | 80 | 90 | 90 | 100 |  |  |  |  |  |  |  |  |  |
| CCCn1nnnc1NC(=O)c1ccc(C(F)(F)F)c(CSC)c1OC [Example 3-134] | 100 | 100 |  |  |  |  |  | 100 | 100 | 90 |  |  |  |  |  |
| CCCn1nnnc1NC(=O)c1ccc(C(F)(F)F)c(CS(C)(=O)=O)c1OC [Example 3-136] | 100 | 100 |  |  |  |  | 90 | 100 | 100 | 80 |  |  |  |  |  |
| CCCn1nnnc1NC(=O)c1ccc(C(F)(F)F)c(CSC)c1Cl [Example 3-296] | 100 | 100 |  |  |  |  | 80 | 100 | 100 |  |  |  |  |  |  |
| CCCn1nnnc1NC(=O)c1ccc(C(F)(F)F)c(C[S+](C)[O-])c1Cl (stereo not drawn) [Example 3-297] | 100 | 100 | 90 | 80 | 100 | 100 |  |  |  |  |  |  |  |  |  |
| CCCn1nnnc1NC(=O)c1ccc(C(F)(F)F)c(CSCC)c1Cl [Example 3-299] | 100 | 100 |  |  |  |  | 80 | 100 | 100 | 80 |  |  |  |  |  |
| CCCn1nnnc1NC(=O)c1ccc(C(F)F)c(CSC)c1Cl [Example 3-320] | 100 | 100 |  |  |  |  | 80 | 100 | 100 | 90 |  |  |  |  |  |
| CCCn1nnnc1NC(=O)c1ccc(C(F)F)c(C[S+]([O-])CC)c1Cl (stereo not drawn) [Example 3-324] | 100 | 100 |  |  |  |  |  | 100 | 100 | 100 |  |  |  |  |  |
| CCCn1nnnc1NC(=O)c1ccc(C(F)(F)F)c(CSC)c1Br [Example 3-380] | 100 | 100 |  |  |  |  | 80 | 100 | 100 | 90 |  |  |  |  |  |
| CCCn1nnnc1NC(=O)c1ccc(C(F)(F)F)c(C[S+](C)[O-])c1Br (stereo not drawn) [Example 3-381] | 100 | 90 | 80 | 80 | 100 | 100 |  |  |  |  |  |  |  |  |  |
| CCCn1nnnc1NC(=O)c1ccc(C(F)(F)F)c(CS(=O)(=O)CC)c1Br [Example 3-385] | 100 | 100 |  |  |  |  |  | 100 | 100 | 90 |  |  |  |  |  |
